Laboratory results: US20230391768A2, “IMIDAZOPYRIDINE DERIVATIVES AND AZA-IMIDAZOPYRIDINE DERIVATIVES AS JANUS KINASE 2 INHIBITORS AND USES THEREOF” (Dana-Farber Cancer Institute, Inc., priority 2018, published 2023)

Legend:
Assay in all cases: KINOMEscan
Type in all cases: binding
ITK = ITK (Homo sapiens (Human), UniProt Q08881); settings: read-out: percent of control
Method: (§1) In vitro profiling of Compound I-2 (1 μM) was performed using the DiscoveRx KINOMEscan® platform.

[1] = target: JAK3(JH1domain-catalytic) (Homo sapiens (Human), UniProt P52333); settings: for remaining binding at 1 µM: JAK3(JH1domain-catalytic), read-out: percent of control
Sequence of JAK3(JH1domain-catalytic) (P52333 822-1111): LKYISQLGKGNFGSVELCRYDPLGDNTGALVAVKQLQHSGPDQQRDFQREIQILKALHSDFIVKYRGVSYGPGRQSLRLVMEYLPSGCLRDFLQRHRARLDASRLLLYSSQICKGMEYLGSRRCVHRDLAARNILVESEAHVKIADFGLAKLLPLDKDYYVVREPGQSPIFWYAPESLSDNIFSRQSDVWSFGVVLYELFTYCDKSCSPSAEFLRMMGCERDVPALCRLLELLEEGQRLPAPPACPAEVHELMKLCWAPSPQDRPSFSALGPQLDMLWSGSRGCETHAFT
Method: as §1

[2] = target: ABL1(F317I)-phosphorylated (Homo sapiens (Human), UniProt P00519, F317I); settings: read-out: percent of control
Method: as §1

MAP3K3 = MAP3K3 (Homo sapiens (Human), UniProt Q99759); settings: read-out: percent of control
Method: as §1

JNK3 = JNK3 (Homo sapiens (Human), UniProt P53779); settings: read-out: percent of control
Method: as §1

CDK4-cyclinD1 = CDK4-cyclinD1 (Homo sapiens (Human), UniProt P11802); settings: read-out: percent of control
Method: as §1

DAPK2 = DAPK2 (Homo sapiens (Human), UniProt Q9UIK4); settings: read-out: percent of control
Sequence of DAPK2 (Q9UIK4 whole entry): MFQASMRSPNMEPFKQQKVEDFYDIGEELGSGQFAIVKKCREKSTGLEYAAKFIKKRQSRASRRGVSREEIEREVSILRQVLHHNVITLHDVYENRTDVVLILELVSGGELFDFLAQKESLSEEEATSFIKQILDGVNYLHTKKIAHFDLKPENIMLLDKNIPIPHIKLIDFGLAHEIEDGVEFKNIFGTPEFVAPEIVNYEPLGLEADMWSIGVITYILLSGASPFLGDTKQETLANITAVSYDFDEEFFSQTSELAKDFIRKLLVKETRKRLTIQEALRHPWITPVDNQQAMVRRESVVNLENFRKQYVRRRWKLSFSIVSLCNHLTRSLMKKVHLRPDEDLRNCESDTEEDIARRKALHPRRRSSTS
Method: as §1

DCAMKL3 = DCAMKL3 (Homo sapiens (Human), UniProt Q9C098); settings: read-out: percent of control
Method: as §1

CLK3 = CLK3 (Homo sapiens (Human), UniProt P49761); settings: read-out: percent of control
Method: as §1

CDK2 = CDK2 (Homo sapiens (Human), UniProt P24941); settings: read-out: percent of control
Method: as §1

CDK3 = CDK3 (Homo sapiens (Human), UniProt Q00526); settings: read-out: percent of control
Method: as §1

ASK2 = ASK2 (Homo sapiens (Human), UniProt O95382); settings: read-out: percent of control
Method: as §1

PIK3CA(M1043I) = PIK3CA(M1043I) (Homo sapiens (Human), UniProt P42336, M1043I); settings: read-out: percent of control
Method: as §1

CSNK2A1 = CSNK2A1 (Homo sapiens (Human), UniProt P68400); settings: read-out: percent of control
Sequence of CSNK2A1 (P68400 whole entry): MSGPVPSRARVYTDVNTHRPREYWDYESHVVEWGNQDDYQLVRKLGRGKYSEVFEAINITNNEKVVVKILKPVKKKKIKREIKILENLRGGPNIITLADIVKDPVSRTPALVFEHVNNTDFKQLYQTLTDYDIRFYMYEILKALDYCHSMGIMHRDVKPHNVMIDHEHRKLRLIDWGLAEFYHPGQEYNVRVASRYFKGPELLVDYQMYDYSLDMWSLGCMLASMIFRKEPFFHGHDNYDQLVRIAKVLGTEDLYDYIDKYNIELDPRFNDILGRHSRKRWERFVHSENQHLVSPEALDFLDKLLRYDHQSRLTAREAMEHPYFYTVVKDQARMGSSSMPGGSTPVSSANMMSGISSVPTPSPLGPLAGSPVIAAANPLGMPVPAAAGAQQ
Method: as §1

BMPR1A = BMPR1A (Homo sapiens (Human), UniProt P36894); settings: read-out: percent of control
Sequence of BMPR1A (P36894 24-532): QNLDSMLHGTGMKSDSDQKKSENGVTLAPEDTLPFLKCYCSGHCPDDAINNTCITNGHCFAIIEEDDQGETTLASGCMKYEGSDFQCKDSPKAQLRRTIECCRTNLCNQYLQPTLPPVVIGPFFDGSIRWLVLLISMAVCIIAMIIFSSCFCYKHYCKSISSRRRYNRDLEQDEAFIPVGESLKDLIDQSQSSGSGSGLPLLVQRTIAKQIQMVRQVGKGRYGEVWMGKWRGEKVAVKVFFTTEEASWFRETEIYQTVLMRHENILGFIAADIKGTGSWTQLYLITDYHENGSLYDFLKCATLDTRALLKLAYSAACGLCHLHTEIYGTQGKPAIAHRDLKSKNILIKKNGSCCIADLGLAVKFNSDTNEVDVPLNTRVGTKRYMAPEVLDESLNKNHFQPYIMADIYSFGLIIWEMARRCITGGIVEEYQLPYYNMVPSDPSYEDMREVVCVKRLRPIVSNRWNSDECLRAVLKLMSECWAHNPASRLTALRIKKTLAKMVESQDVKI
Method: as §1

ZAP70 = ZAP70 (Homo sapiens (Human), UniProt P43403); settings: read-out: percent of control
Method: as §1

HASPIN = HASPIN (Homo sapiens (Human), UniProt Q8TF76); settings: read-out: percent of control
Method: as §1

MAPKAPK5 = MAPKAPK5 (Homo sapiens (Human), UniProt Q8IW41); settings: read-out: percent of control
Method: as §1

DAPK1 = DAPK1 (Homo sapiens (Human), UniProt P53355); settings: read-out: percent of control
Method: as §1

TNIK = TNIK (Homo sapiens (Human), UniProt Q9UKE5); settings: read-out: percent of control
Method: as §1

[3] = target: ABL1(E255K)-phosphorylated (Homo sapiens (Human), UniProt P00519, E255K); settings: read-out: percent of control
Method: as §1

NIM1 = NIM1 (Homo sapiens (Human), UniProt Q8IY84); settings: read-out: percent of control
Sequence of NIM1 (Q8IY84 whole entry): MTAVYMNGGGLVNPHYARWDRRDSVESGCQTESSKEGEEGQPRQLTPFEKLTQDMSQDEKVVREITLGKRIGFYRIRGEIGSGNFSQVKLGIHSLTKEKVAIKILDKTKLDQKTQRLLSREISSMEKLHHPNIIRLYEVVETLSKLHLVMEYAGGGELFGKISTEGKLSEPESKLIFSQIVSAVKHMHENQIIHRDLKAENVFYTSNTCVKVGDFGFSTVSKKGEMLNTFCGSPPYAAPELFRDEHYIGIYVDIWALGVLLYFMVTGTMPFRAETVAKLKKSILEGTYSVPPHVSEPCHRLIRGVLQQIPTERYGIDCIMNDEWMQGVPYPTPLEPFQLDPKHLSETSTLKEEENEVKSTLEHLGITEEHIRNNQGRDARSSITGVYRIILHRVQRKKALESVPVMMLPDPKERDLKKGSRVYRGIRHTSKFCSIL
Method: as §1

CDK5 = CDK5 (Homo sapiens (Human), UniProt Q00535); settings: read-out: percent of control
Sequence of CDK5 (Q00535 whole entry): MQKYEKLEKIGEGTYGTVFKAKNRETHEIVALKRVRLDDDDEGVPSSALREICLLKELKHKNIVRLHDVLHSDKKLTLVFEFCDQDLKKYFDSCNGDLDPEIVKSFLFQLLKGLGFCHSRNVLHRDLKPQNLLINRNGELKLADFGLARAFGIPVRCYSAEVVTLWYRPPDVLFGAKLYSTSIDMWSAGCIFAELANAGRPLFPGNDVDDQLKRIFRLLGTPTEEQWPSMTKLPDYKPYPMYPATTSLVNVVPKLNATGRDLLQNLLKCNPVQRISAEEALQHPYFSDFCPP
Method: as §1

EGFR(L861Q) = EGFR(L861Q) (Homo sapiens (Human), UniProt P00533, L861Q); settings: read-out: percent of control
Method: as §1

PRKG2 = PRKG2 (Homo sapiens (Human), UniProt Q13237); settings: read-out: percent of control
Sequence of PRKG2 (Q13237 whole entry): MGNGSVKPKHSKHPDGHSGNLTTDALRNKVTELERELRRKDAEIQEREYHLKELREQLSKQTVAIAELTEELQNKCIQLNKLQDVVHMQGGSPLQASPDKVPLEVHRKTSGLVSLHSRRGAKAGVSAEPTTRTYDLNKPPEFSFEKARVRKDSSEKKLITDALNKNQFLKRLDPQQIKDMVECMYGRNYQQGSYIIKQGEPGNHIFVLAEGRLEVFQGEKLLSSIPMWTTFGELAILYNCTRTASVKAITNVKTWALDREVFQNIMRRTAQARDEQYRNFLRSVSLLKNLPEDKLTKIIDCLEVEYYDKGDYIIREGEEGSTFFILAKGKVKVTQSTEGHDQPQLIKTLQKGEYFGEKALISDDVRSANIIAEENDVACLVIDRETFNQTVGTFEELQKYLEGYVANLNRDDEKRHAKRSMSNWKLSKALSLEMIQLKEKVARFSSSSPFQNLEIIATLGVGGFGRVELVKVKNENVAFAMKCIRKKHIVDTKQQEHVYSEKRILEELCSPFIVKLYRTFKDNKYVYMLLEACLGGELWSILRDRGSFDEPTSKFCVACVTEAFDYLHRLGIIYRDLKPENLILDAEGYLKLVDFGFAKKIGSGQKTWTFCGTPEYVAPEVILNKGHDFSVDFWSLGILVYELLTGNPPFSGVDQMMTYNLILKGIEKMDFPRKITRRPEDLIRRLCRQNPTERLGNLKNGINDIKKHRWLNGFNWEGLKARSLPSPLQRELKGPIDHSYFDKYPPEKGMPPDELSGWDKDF
Method: as §1

PIK3CA(E545K) = PIK3CA(E545K) (Homo sapiens (Human), UniProt P42336, E545K); settings: read-out: percent of control
Method: as §1

TNK2 = TNK2 (Homo sapiens (Human), UniProt Q07912); settings: read-out: percent of control
Method: as §1

MEK2 = MEK2 (Homo sapiens (Human), UniProt P36507); settings: read-out: percent of control
Method: as §1

PKMYT1 = PKMYT1 (Homo sapiens (Human), UniProt Q99640); settings: read-out: percent of control
Sequence of PKMYT1 (Q99640 whole entry): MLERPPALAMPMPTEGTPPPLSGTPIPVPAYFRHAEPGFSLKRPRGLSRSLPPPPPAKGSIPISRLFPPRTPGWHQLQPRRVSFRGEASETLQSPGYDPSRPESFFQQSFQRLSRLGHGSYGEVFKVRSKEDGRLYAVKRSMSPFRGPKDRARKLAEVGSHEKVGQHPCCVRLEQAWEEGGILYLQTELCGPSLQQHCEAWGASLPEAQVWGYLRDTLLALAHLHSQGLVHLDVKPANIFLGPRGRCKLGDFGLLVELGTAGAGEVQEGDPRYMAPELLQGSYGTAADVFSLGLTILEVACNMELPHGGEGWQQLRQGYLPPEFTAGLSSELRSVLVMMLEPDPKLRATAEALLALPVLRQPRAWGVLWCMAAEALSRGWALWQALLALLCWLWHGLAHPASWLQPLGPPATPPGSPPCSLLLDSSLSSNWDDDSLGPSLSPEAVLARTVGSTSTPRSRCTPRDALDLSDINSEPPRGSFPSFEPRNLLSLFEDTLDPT
Method: as §1

CDKL5 = CDKL5 (Homo sapiens (Human), UniProt O76039); settings: read-out: percent of control
Method: as §1

MYLK4 = MYLK4 (Homo sapiens (Human), UniProt Q86YV6); settings: read-out: percent of control
Sequence of MYLK4 (Q86YV6 whole entry): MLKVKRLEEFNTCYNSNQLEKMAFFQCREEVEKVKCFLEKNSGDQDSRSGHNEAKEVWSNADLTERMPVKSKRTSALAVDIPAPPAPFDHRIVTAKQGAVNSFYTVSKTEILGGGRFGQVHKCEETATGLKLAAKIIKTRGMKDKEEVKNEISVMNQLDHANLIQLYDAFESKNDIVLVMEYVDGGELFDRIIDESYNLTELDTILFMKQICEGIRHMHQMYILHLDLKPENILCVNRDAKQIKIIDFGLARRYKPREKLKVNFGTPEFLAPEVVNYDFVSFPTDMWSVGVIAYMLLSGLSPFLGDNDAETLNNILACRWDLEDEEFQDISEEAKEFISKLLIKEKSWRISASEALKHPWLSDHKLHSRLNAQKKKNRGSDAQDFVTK
Method: as §1

STK35 = STK35 (Homo sapiens (Human), UniProt Q8TDR2); settings: read-out: percent of control
Method: as §1

p38-alpha = p38-alpha (Homo sapiens (Human), UniProt Q16539); settings: read-out: percent of control
Method: as §1

DCAMKL2 = DCAMKL2 (Homo sapiens (Human), UniProt Q8N568); settings: read-out: percent of control
Method: as §1

CSNK1G1 = CSNK1G1 (Homo sapiens (Human), UniProt Q9HCP0); settings: read-out: percent of control
Sequence of CSNK1G1 (Q9HCP0 whole entry): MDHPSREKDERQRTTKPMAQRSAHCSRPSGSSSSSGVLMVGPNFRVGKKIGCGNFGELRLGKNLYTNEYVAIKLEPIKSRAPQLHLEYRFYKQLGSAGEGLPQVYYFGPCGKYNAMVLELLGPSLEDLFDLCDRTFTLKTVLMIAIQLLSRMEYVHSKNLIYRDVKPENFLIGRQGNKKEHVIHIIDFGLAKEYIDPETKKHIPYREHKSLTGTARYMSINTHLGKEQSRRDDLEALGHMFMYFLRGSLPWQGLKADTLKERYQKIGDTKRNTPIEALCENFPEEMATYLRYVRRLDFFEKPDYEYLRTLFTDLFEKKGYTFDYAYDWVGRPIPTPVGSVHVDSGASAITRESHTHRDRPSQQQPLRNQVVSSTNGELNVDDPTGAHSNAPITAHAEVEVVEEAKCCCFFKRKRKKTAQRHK
Method: as §1

WNK1 = WNK1 (Homo sapiens (Human), UniProt Q9H4A3); settings: read-out: percent of control
Method: as §1

CAMKK2 = CAMKK2 (Homo sapiens (Human), UniProt Q96RR4); settings: read-out: percent of control
Sequence of CAMKK2 (Q96RR4 whole entry): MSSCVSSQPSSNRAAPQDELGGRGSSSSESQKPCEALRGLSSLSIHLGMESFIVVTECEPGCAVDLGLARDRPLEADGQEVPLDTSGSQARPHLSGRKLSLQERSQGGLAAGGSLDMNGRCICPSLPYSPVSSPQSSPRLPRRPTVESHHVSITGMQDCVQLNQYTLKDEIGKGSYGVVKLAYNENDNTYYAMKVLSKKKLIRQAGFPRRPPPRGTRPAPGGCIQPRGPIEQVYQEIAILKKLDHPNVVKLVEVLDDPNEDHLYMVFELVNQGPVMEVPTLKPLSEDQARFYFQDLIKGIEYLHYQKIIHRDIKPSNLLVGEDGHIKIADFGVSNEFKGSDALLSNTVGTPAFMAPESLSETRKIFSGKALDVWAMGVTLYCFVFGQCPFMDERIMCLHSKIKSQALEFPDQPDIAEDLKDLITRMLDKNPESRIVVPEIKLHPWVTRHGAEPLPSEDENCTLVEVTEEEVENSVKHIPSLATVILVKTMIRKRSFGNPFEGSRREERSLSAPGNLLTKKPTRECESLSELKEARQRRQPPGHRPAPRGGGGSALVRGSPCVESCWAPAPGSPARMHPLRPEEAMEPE
Method: as §1

EPHA2 = EPHA2 (Homo sapiens (Human), UniProt P29317); settings: read-out: percent of control
Method: as §1

## CCN1CCN(Cc2cc(NC(=O)c3ccc(C)c(-c4ccc5nc(NC(=O)C6CC6)cn5n4)c3)cc(C(F)(F)F)c2)CC1 [Compound I-2, 3-(2-(cyclopropanecarboxamido)imidazo[1,2-b]pyridazin-6-yl)-N-(3-((4-ethylpiperazin-1-yl)methyl)-5-(trifluoromethyl)phenyl)-4-methylbenzamide]
ITK
  remaining binding at 1 µM: 1.4%
[1]
  remaining binding at 1 µM: 0%
[1]; KINOMEscan, 1 μM
  selectivity for JAK3 over JAK2, JAK1, and TYK2: more selective for JAK3 over JAK2, JAK1, and TYK2
[2]
  remaining binding at 1 µM: 5.1%
MAP3K3
  remaining binding at 1 µM: 48%
JNK3
  remaining binding at 1 µM: 85%
CDK4-cyclinD1
  remaining binding at 1 µM: 19%
DAPK2
  remaining binding at 1 µM: 94%
DCAMKL3
  remaining binding at 1 µM: 91%
CLK3
  remaining binding at 1 µM: 79%
CDK2
  remaining binding at 1 µM: 7%
CDK3
  remaining binding at 1 µM: 5.7%
ASK2
  remaining binding at 1 µM: 99%
PIK3CA(M1043I)
  remaining binding at 1 µM: 100%
CSNK2A1
  remaining binding at 1 µM: 98%
BMPR1A
  remaining binding at 1 µM: 99%
ZAP70
  remaining binding at 1 µM: 66%
HASPIN
  remaining binding at 1 µM: 87%
MAPKAPK5
  remaining binding at 1 µM: 72%
DAPK1
  remaining binding at 1 µM: 100%
TNIK
  remaining binding at 1 µM: 16%
[3]
  remaining binding at 1 µM: 0.5%
NIM1
  remaining binding at 1 µM: 99%
CDK5
  remaining binding at 1 µM: 6.6%
EGFR(L861Q)
  remaining binding at 1 µM: 82%
PRKG2
  remaining binding at 1 µM: 100%
PIK3CA(E545K)
  remaining binding at 1 µM: 99%
TNK2
  remaining binding at 1 µM: 100%
MEK2
  remaining binding at 1 µM: 95%
PKMYT1
  remaining binding at 1 µM: 100%
CDKL5
  remaining binding at 1 µM: 95%
MYLK4
  remaining binding at 1 µM: 96%
STK35
  remaining binding at 1 µM: 69%
p38-alpha
  remaining binding at 1 µM: 8.4%
DCAMKL2
  remaining binding at 1 µM: 98%
CSNK1G1
  remaining binding at 1 µM: 100%
WNK1
  remaining binding at 1 µM: 100%
CAMKK2
  remaining binding at 1 µM: 28%
EPHA2
  remaining binding at 1 µM: 1.8%

## CCN1CCN(Cc2cc(NC(=O)c3ccc(C)c(-c4ccc5nc(NC(=O)C6CC6)cn5c4)c3)cc(C(F)(F)F)c2)CC1 [Compound I-6, 3-(2-(cyclopropanecarboxamido)imidazo[1,2-a]pyridin-6-yl)-N-(3-((4-ethylpiperazin-1-yl)methyl)-5-(trifluoromethyl)phenyl)-4-methylbenzamide]
ITK
  remaining binding at 1 µM: 5.8%
[1]
  remaining binding at 1 µM: 0%
[2]
  remaining binding at 1 µM: 9.4%
MAP3K3
  remaining binding at 1 µM: 56%
JNK3
  remaining binding at 1 µM: 93%
CDK4-cyclinD1
  remaining binding at 1 µM: 17%
DAPK2
  remaining binding at 1 µM: 100%
DCAMKL3
  remaining binding at 1 µM: 96%
CLK3
  remaining binding at 1 µM: 84%
CDK2
  remaining binding at 1 µM: 60%
CDK3
  remaining binding at 1 µM: 40%
ASK2
  remaining binding at 1 µM: 64%
PIK3CA(M1043I)
  remaining binding at 1 µM: 73%
CSNK2A1
  remaining binding at 1 µM: 100%
BMPR1A
  remaining binding at 1 µM: 92%
ZAP70
  remaining binding at 1 µM: 30%
HASPIN
  remaining binding at 1 µM: 64%
MAPKAPK5
  remaining binding at 1 µM: 100%
DAPK1
  remaining binding at 1 µM: 100%
TNIK
  remaining binding at 1 µM: 14%
[3]
  remaining binding at 1 µM: 0.65%
NIM1
  remaining binding at 1 µM: 88%
CDK5
  remaining binding at 1 µM: 52%
EGFR(L861Q)
  remaining binding at 1 µM: 54%
PRKG2
  remaining binding at 1 µM: 99%
PIK3CA(E545K)
  remaining binding at 1 µM: 93%
TNK2
  remaining binding at 1 µM: 99%
MEK2
  remaining binding at 1 µM: 95%
PKMYT1
  remaining binding at 1 µM: 100%
CDKL5
  remaining binding at 1 µM: 100%
MYLK4
  remaining binding at 1 µM: 100%
STK35
  remaining binding at 1 µM: 59%
p38-alpha
  remaining binding at 1 µM: 26%
DCAMKL2
  remaining binding at 1 µM: 100%
CSNK1G1
  remaining binding at 1 µM: 96%
WNK1
  remaining binding at 1 µM: 100%
CAMKK2
  remaining binding at 1 µM: 41%
EPHA2
  remaining binding at 1 µM: 0.15%
